Reference: patent publication US20130084267A1, “METHOD FOR STEM CELL DIFFERENTIATION” (THE UNIVERSITY OF QUEENSLAND, priority 2010, published 2013)

What was measured:
MR90 cells = assay: Flow cytometry analysis of EPCAM expression in SB431542-treated MR90; assay type: cell-based, human
Protocol: (a) the isotype Ab control. […] The EPCAM-(CD326-) cell population have been identified as the precursors of the mesodermal cell lineage. These cells can be further differentiated into mesenchymal stem cell lineage, like MSC. The iPSC MR90 cells were cultured in mTeSR and KOSR condition medium with SB431542 for 10 days, and then subcultured into MSC medium to differentiate cells into MSC. […] Analysis was performed by flow cytometry for EPCAM expression in the SB431542-treated MR90 cells after at 10 days in culture.

MR90 = assay: qRT-PCR gene expression analysis of SB431542-treated MR90; assay type: cell-based, human; settings: MR90, 10 μM SB431542, 10 days
Protocol: Pluripotent iPSC, MR90, were cultured in KOSR medium with 10 μM SB431542 treatment for 10 days. After 10 days treatment, MR90 cells were subcultured in the MSC medium for differentiating MSC cells. […] MSC are indicated as MR90-MSC P0 (passage 0). The SB431542 treated cells and MR90-MSC P0 were analyzed for gene expression. (a-d) OCT4, SOX2, MYST2 and EPCAM genes associated with iPSC pluripotency. (e-h) NCAM, MSX2, LEFTY1 and BMP4 genes expressed by cell lineages from the mesoderm. (i-j) PAX6 gene is expressed by cell lineages from the ectoderm and CDX2 gene is expressed by cell lineages from the trophectoderm. (k) GATA gene expressed by cell lineages from the endoderm. (l-o) Genes expressed by MSC (positive in CD29, CD73 and negative in the CD117, CD133). Gene expression was normalized to GAPDH. All experiments represent duplicates.
(A, B) The heat map of mRNA expression level was assayed by qRT-PCR array. ESC/iPSC cells were cultured in KOSR condition medium with 10 μM SB431542. […] (C) Relative mRNA transcripts folds change of quantitative RT-PCR analysis in the indicated cell subsets. […]
Pluripotent iPSC (MR90) were cultured in mTESR medium and KOSR medium with 10 μM SB431542 for 10 days. […] After 10 days, SB431542-treated cells and MR90-MSC P0 cells were analyzed for gene expression (see FIG. 13). […]

MEL1 = assay: qRT-PCR gene expression analysis of SB431542-treated MEL1; assay type: cell-based, human; settings: MEL1, 10 μM SB431542, 10 days
Protocol: The pluripotent hESC line, MEL1, was cultured in KOSR medium with 10 μM SB431542 treatment. After 10 days treatment, MEL1 cells were subcultured in MSC medium for differentiating MSC cells. […] SB431542 treated cells and MEL1-MSC P2 were analyzed for gene expression. (a-d) OCT4, SOX2, MYST2 and EPCAM genes associated with iPSC pluripotency. (e-h) NCAM, MSX2, LEFTY1 and BMP4 genes expressed by cell lineages from the mesoderm. (i-j) PAX6 gene is expressed by cell lineages from the ectoderm and CDX2 gene is expressed by cell lineages from the trophectoderm. (k) GATA gene expressed by cell lineages from the endoderm. (l-o) Genes expressed by MSC (positive in CD29, CD73 and negative in the CD117, CD133). Gene expression was normalized to GAPDH. All experiments represent duplicates. […] (A, B) The heat map of mRNA expression level was assayed by qRT-PCR array. ESC/iPSC cells were cultured in KOSR condition medium with 10 μM SB431542. After 10 days treatment, cells were subcultured into MSC medium to differentiate cells into MSC. RNA was extracted from MEL1 and MR90 cells at day 10. […] (C) Relative mRNA transcripts folds change of quantitative RT-PCR analysis in the indicated cell subsets. All the gene expression level was normalized to GAPDH mRNA level and compared to genes level in the mTESR culture condition. […]

iPSC = assay: Immunofluorescence marker analysis of iPSC differentiated in the presence of SB431542; assay type: cell-based, human
Description: Nuclei were counter-stained with dapi (blue). […] Nuclei were counter-stained with dapi (blue).

ALK-4, -5 and -7 = settings: Inman et al. 2002; Laping et al. 2002; cited from earlier work
hESC = assay: Morphology of hESC cultured in the presence of SB431542; assay type: cell-based, human; settings: after 10 days incubation with SB431542
Description: (A) hESC remain as tightly packed colonies of small cells when cultured in normal growth conditions. […] (B) When these cells are transferred to MSC media, they again change morphology and become fibroblastic. (C) MSC also have a fibroblast-like morphology. (D) hiPSC line ES4CL1 also differentiates though an epithelial-like morphology into MSC-like cells with this SB431542 inhibitor culture method.
Day −4 to −1: hESC/iPSC were dissociated from mouse embryonic fibroblast (MEF) feeder layer and seeded on either un-coated flasks (i.e., which allow for adherence (attachment) of the pluripotent cells to the surface) or matrigel-coated flasks in mTESR (defined pluripotent stem cell media, Stem Cell Technologies; i.e. serum free, feeder layer free).
Day 1: when cell colonies were approximately 40% confluent, 10 uM SB431542 inhibitor (Sigma Aldrich) was added in DMEM:F12+20% knock out serum replacement (KOSR, Invitrogen) media.
Day 2-9: 20% KOSR+SB431542 inhibitor media replaced daily.
Day 7-10: when 90%+ cells have differentiated from hESC colonies to a monolayer with epithelial-like morphology, cells were passaged using TrypleSelect. Single cells were then seeded at 3×10^4-1.5×10^5 cells/cm^2 in fetal MSC medium (DMEM-HG+10% MSC qualified FBS), then passage when nearly confluent as for MSC.

[1] = test system: BMP signaling utilizing ALK-1, -2, -3, and -6; settings: Inman et al. 2002; Laping et al. 2002; cited from earlier work
SMAD2/3 phosphorylation = settings: Xu et al. 2008; cited from earlier work
[2] = compared with undifferentiated cells in mTeSR medium

SMILES: NC(=O)c1ccc(-c2nc(-c3ccc4c(c3)OCO4)c(-c3ccccn3)[nH]2)cc1 [SB431542, 4-[4-(1,3-benzodioxol-5-yl)-5-(2-pyridinyl)-1H-imidazol-2-yl]-benzamide]
- population of EPCAM+ MR90 cell (MR90 cells; KOSR medium with SB431542, 10 days, decreased from 22.84%): 5.94%
- population of EPCAM+ MR90 cell (MR90 cells; MTESR medium with SB431542, 10 days, decreased from 45%): 8.14%
- differentiation into germ layer lineages (lineage gene expression) (MR90): induced MR90 differentiate into mesoderm (MSX1, MSX2, NCAM1, BMP4), ectoderm (PAX6) and trophectoderm (CDX2)
- relative mRNA levels of pluripotent genes (Pou5F (Oct4), SOX2, MYST2) (MR90; [2]): decreased
- differentiation into germ layer lineages (lineage gene expression) (MEL1): enhanced MEL1 differentiation into mesoderm (MSX1, MSX2, SOX9, NCAM1, BMP4), ectoderm (PAX6), trophectoderm (CDX2), endoderm (GATA4) and MSC cells (CD73, CD29)
- relative mRNA levels of pluripotent genes (Pou5F (Oct4), SOX2, MYST2) (MEL1; [2]): decreased
- expression of pluripotency markers (Oct4, Nanog, Stella, SSEA3, Tra 1-60 and Tra 1-81) (iPSC): decreased expression
- inhibition of ALK-4, -5 and -7 (ALK-4, -5 and -7): selective and potent inhibitor
- cell morphology (hESC): differentiated into an epithelial-like monolayer
- effect on BMP signaling utilizing ALK-1, -2, -3, and -6 [1]: without affecting
- effect on SMAD2/3 phosphorylation and NANOG promoter activity in hESC (SMAD2/3 phosphorylation): inhibiting SMAD2/3 phosphorylation and subsequent decrease in NANOG promoter activity
